This passage reports EC50 and IC50 results from patent US20110306636A1, “OXAZOLE PYRIDINE DERIVATIVES USEFUL AS S1P1 RECEPTOR AGONISTS” (Merck Serono SA, priority 2009, published 2011).

Where a name gives a salt, the structure may show the parent alone. Read-outs that look alike come from different tables or passages of the source.

Assay [1] concerns the target T1, S1P1 (Homo sapiens, UniProt P21453). The assay is described as follows: 35S-GTPγS binding assay, S1P1 membranes. The conditions noted are these: membranes from CHO cells expressing S1P1; read-out: S1P1/GTPG EC50. It counts as biochemical. As to the method: (§1) Membranes Preparation: Membranes were prepared from CHO cells expressing S1P1 or S1P3 for use in ligand and 35S-GTPγS binding studies. Cells were suspended in 50 mM TRIS, pH 7.4, 2 mM EDTA, 250 mM Sucrose (buffer A) and 1× Complete protease inhibitor cocktail (Roche), and disrupted at 4° C. by N2 decompression using a cell disruption bomb (Parr Instrument). Following centrifugation at 1000 RPM for 10 min at 4° C., the supernatant was diluted (2×) in buffer A and centrifuged again at 19000 RPM for 75 min at 4° C. The pellet was then suspended in 10 mM HEPES, pH 7.4, 1 mM EDTA, 250 mM Sucrose (Buffer B), and 1× Complete EDTA-free protease inhibitor cocktail and homogenized using a potter. Membranes were flash frozen in liquid N2 and stored at −80° C.
(§2) Measurements of 35S-GTPγS Binding: Membranes (1 to 10 μg protein) prepared as described above, were incubated in 96-well Scintiplates (PerkinElmer) with test compounds diluted in DMSO, in 140 μl of 20 mM HEPES, pH 7.4, 10 mM MgCl2, 2 μg/well Saponin, 0.2% fatty acid free BSA (Assay buffer), 125 mM NaCl and 1.5 μM GDP. The assay was initiated with the addition of 60 μl of 1.5 nM [35S]-GTPγS (1100 Ci/mmol; GE Healthcare) in assay buffer. After 60 min incubation at 30° C. on a shaker, plates were centrifuged for 10 min at 2000 RPM. Supernatant was discarded and membrane bound radioactivity was measured on a PerkinElmer 1450 MicroBeta counter. Triplicate samples were averaged and expressed as % response relative to S1P activation in absence of compound (n=2).
The “potency” or the “activity” of the compounds is determined by the EC50 values as evaluated in the above described 35S-GTPγS binding assay.
Background: GTPγS resists hydrolysis and so accumulates on activated G proteins.

Assay [2] deals with T1, S1P1. The assay is described as follows: Receptor binding assay, [33P]sphingosine 1-phosphate competition, S1P1. The method in brief:
(§3)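 SPA competition binding on CHO-cell membranes with 30 pM (S1P1) or 15 pM (S1P3) [33P]S1P in 50 mM HEPES pH 7.5, 5 mM MgCl2, 100 mM NaCl, 0.4% fatty acid-free BSA, 60 min at RT. Percent inhibition normalised to total binding and to non-specific binding (1000-fold unlabelled S1P), triplicates averaged.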

The target of assay [3] is T2, S1P3 (Homo sapiens, UniProt Q99500). Description: 35S-GTPγS binding assay, S1P3 membranes. The format is biochemical. The conditions noted are these: membranes from CHO cells expressing S1P3; read-out: S1P3/GTPG EC50. As to the method:
as §1, §2

Assay [4] addresses T3, human S1P1 Receptor fused to the green fluorescent protein (EGFP) (Homo sapiens, UniProt P21453).
T3 construct: host or cells: U2OS (human bone osteosarcoma epithelial cells), CMV promoter, geneticin selection
The assay is described as follows: Internalization of S1P1 in S1P1-U2OS cells by cell imaging analysis. The format is cell-based. The conditions noted are these: 1 hour incubation, 384-well. The gist of the method: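 Human U2OS osteosarcoma cells stably expressed human S1P1-EGFP. After 2 h serum starvation in 0.1% fatty-acid-free BSA medium, cells were treated with compounds for 1 h at 37 °C. Cells were then fixed and Hoechst-stained, and internalization was imaged as spots (receptor) per nucleus.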

Assay [5] addresses T2, S1P3. Description: Receptor binding assay, [33P]sphingosine 1-phosphate competition, S1P3. The method in brief: as §3
Setting [6] is: 96 well-plate, read-out: S1P1 binding IC50 (M) (96 well-plate).
Where [7] appears, read: 96 well-plate, read-out: S1P3 binding IC50 (M) (96 well-plate).
Setting [8] is: 384 well-plate, read-out: S1P1 binding IC50 (M) (384 well-plate).

T1 sequence (P21453 whole entry, species assumed): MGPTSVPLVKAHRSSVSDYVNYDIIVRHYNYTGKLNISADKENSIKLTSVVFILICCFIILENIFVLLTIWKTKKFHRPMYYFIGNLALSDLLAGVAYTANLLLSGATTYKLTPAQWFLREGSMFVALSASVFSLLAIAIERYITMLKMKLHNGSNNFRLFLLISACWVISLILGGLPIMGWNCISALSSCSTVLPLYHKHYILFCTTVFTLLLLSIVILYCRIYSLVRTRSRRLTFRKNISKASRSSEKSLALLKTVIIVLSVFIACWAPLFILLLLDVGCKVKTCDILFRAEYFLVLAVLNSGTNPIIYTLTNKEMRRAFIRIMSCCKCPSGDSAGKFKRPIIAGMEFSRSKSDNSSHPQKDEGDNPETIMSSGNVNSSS
T2 sequence (Q99500 whole entry, species assumed): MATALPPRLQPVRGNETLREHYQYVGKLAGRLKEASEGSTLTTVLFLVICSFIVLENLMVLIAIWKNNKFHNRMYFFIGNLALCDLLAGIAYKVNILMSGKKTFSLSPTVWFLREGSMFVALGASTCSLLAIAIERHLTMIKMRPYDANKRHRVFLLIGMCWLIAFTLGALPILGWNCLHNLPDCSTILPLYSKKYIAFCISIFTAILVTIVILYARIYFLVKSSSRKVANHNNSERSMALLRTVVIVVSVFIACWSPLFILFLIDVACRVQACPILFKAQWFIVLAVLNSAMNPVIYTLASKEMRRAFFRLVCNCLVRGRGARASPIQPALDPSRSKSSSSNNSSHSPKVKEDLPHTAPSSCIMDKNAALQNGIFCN
T3 sequence (P21453 with tags, fused parts or gaps): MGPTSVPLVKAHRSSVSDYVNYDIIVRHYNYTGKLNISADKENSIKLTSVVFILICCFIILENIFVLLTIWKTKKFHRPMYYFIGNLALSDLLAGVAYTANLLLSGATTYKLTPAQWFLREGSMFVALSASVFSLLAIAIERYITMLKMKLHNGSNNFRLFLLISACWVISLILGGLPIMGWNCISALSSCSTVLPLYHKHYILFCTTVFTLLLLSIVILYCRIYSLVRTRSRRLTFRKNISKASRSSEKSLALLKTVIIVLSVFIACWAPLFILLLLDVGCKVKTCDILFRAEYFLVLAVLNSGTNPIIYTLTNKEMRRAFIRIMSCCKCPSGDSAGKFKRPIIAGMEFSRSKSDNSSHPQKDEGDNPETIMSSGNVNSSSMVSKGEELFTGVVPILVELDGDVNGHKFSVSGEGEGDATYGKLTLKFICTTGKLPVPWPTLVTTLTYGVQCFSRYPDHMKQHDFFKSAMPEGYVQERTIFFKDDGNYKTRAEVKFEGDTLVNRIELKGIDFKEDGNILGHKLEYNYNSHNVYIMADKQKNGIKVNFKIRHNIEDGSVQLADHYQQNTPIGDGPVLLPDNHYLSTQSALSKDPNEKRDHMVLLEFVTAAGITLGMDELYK

In the case of `COCc1cc(-c2nc(-c3ccnc(NCCC(=O)O)c3)no2)ccc1-c1ccccc1C` [Example 7, N-(4-{5-[2-(methoxymethyl)-2′-methylbiphenyl-4-yl]-1,2,4-oxadiazol-3-yl}pyridin-2-yl)-beta-alanine, hydrochloride salt], the EC50 on S1P1 [1] stood at 5.12 nM; at S1P3 [3], 118 nM. Moreover, at S1P1 [2] (setting [6]), the IC50 (commonly the concentration that gives 50% inhibition) was 9.09e-09 M.

With `COCCNc1ncc(-c2noc(-c3ccc(-c4ccccc4C)c(COC)c3)n2)cc1Cl` [Example 34, 3-chloro-N-(2-methoxyethyl)-5-{5-[2-(methoxymethyl)-2′-methylbiphenyl-4-yl]-1,2,4-oxadiazol-3-yl}pyridin-2-amine], the EC50 on S1P1 [1] turned out to be 11.8 nM. For the same compound, on S1P1 [2] (setting [6]), the IC50 was found to be 5.26e-09 M.

In the case of `COCc1cc(-c2nc(-c3cnc(N)c(C)c3)no2)ccc1-c1ccccc1C` [Example 18, 5-{5-[2-(methoxymethyl)-2′-methylbiphenyl-4-yl]-1,2,4-oxadiazol-3-yl}-3-methylpyridin-2-amine, hydrochloride salt], the values for the EC50 (in assay [4]; on S1P1 [1]) were 49.4 nM and 4.87 nM, respectively. Further, the IC50 was 2.21e-05 M on S1P3 [5] (setting [7]), 4.33e-09 M on S1P1 [2] (setting [6]) and 1.52e-08 M on S1P1 [2] (setting [8]).

As to `COCc1cc(-c2nc(-c3ccc(N)nc3)no2)ccc1N1CCCCC1C` (centres unmarked) [Example 9, 5-{5-[3-(methoxymethyl)-4-(2-methylpiperidin-1-yl)phenyl]-1,2,4-oxadiazol-3-yl}pyridin-2-amine], the results for the EC50 at S1P1 [1] and at S1P3 [3] were 1.77 nM and 2620 nM, respectively. The IC50 on S1P1 [2] (setting [6]) was determined as 4.29e-09 M.

Turning to `COCc1cc(-c2nc(-c3ccc(NCCC(=O)O)nc3)no2)ccc1-c1ccccc1C` [Example 2, N-(5-{5-[2-(methoxymethyl)-2′-methylbiphenyl-4-yl]-1,2,4-oxadiazol-3-yl}pyridin-2-yl)-beta-alanine, hydrochloride salt], the EC50 at S1P1 [1] was found to be 21.1 nM; on S1P3 [3] it was 1890 nM. The IC50 at S1P1 [2] (setting [6]) stood at 4.83e-09 M.

As to `COCc1cc(-c2nc(-c3cnc(N)nc3)no2)ccc1-c1ccccc1C` [Example 17, 5-{5-[2-(methoxymethyl)-2′-methylbiphenyl-4-yl]-1,2,4-oxadiazol-3-yl}pyrimidin-2-amine], the EC50 (in assay [4]; on S1P1 [1]) was 152 nM each time. Further, the IC50 on S1P1 [2] (setting [8]) was determined as 2.92e-08 M.

With `COCc1cc(-c2nc(-c3ccnc(NCC(=O)O)c3)no2)ccc1-c1ccccc1C` [Example 11, N-(4-{5-[2-(methoxymethyl)-2′-methylbiphenyl-4-yl]-1,2,4-oxadiazol-3-yl}pyridin-2-yl)glycine, hydrochloride salt], the EC50 in assay [4] was 244 nM; at S1P1 [1] it was 22.2 nM. Further, the IC50 on S1P3 [5] (384 well-plate, read-out: S1P3 binding IC50 (M) (384 well-plate)) came out at 2.97e-06 M; at S1P1 [2] (setting [8]), 6.42e-08 M.

For the compound `CC1CCCCN1c1ccc(-c2nc(-c3ccc(N)nc3)no2)cc1C(F)(F)F` (centres unmarked) [Example 20, 5-{5-[4-(2-methylpiperidin-1-yl)-3-(trifluoromethyl)phenyl]-1,2,4-oxadiazol-3-yl}pyridin-2-amine], at S1P1 [1], the EC50 was 14.7 nM. Besides, the IC50 at S1P1 [2] (setting [6]) is 1.03e-08 M.

In the case of `COCc1cc(-c2nc(-c3ccc(O)nc3)no2)ccc1N1CCCCC1C` (centres unmarked) [Example 22, 5-{5-[3-(methoxymethyl)-4-(2-methylpiperidin-1-yl)phenyl]-1,2,4-oxadiazol-3-yl}pyridin-2-ol], the EC50 at S1P1 [1] turned out to be 5.29 nM; on S1P3 [3] it was 153 nM. In addition, at S1P1 [2] (setting [6]), the concentration for half-maximal inhibition (IC50) is 1.3e-09 M.

As for `COCc1cc(-c2nc(-c3ccnc(N)c3)no2)ccc1-c1ccccc1C` [Example 15, 4-{5-[2-(methoxymethyl)-2′-methylbiphenyl-4-yl]-1,2,4-oxadiazol-3-yl}pyridin-2-amine, hydrochloride salt], the EC50 in assay [4] was found to be 6 nM; on S1P1 [1], 3.52 nM; at S1P3 [3], 414 nM. Moreover, the IC50 at S1P1 [2] (setting [6]) came to 1.04e-08 M.

Take `COCc1cc(-c2nc(-c3ccc(NCCO)nc3)no2)ccc1-c1ccccc1C` [Example 28, 2-[(5-{5-[2-(methoxymethyl)-2′-methylbiphenyl-4-yl]-1,2,4-oxadiazol-3-yl}pyridin-2-yl)amino]ethanol]: the EC50 on S1P1 [1] was 5.25 nM. The IC50 at S1P1 [2] (setting [6]) came to 4.54e-09 M.

With `COCc1cc(-c2nc(-c3ccc(NCCC(=O)OC(C)(C)C)nc3)no2)ccc1-c1ccccc1C` [Example 1, tert-butyl N-(5-{5-[2-(methoxymethyl)-2′-methylbiphenyl-4-yl]-1,2,4-oxadiazol-3-yl}pyridin-2-yl)-beta-alaninate], at S1P1 [1], the EC50 amounted to 134 nM.

`COCc1cc(-c2nc(-c3cnc(N)cn3)no2)ccc1-c1ccccc1C` [Example 16, 5-{5-[2-(methoxymethyl)-2′-methylbiphenyl-4-yl]-1,2,4-oxadiazol-3-yl}pyrazin-2-amine]: the EC50 at S1P1 [1] amounted to 72.8 nM.

With `COCc1cc(-c2nc(-c3ccc(N)nc3)no2)ccc1-c1ccccc1Cl` [Example 32, 5-{5-[2′-chloro-2-(methoxymethyl)biphenyl-4-yl]-1,2,4-oxadiazol-3-yl}pyridin-2-amine], the EC50 in assay [4] was 38.8 nM; at S1P1 [1], 2.98 nM. Further, the IC50 at S1P3 [5] (setting [7]) stood at 9.4e-06 M; on S1P1 [2] (setting [6]), 1.39e-09 M; on S1P1 [2] (setting [8]), 2.12e-08 M.

As for `COCc1cc(-c2nc(-c3cnc(NCC(=O)O)c(Cl)c3)no2)ccc1-c1ccccc1C` [Example 38, N-(3-chloro-5-{5-[2-(methoxymethyl)-2′-methylbiphenyl-4-yl]-1,2,4-oxadiazol-3-yl}pyridin-2-yl)glycine, hydrochloride salt], the EC50 at S1P1 [1] was determined as 29.1 nM.

On to `Cc1ccccc1-c1ccc(-c2nc(-c3ccc(N)nc3)no2)cc1C(F)(F)F` [Example 19, 5-{5-[2′-methyl-2-(trifluoromethyl)biphenyl-4-yl]-1,2,4-oxadiazol-3-yl}pyridin-2-amine], for which the EC50 on S1P1 [1] worked out at 22.3 nM.

Consider `COCc1cc(-c2nc(-c3ccc(C(=O)O)nc3)no2)ccc1-c1ccccc1C` [Example 25, 5-{5-[2-(methoxymethyl)-2′-methylbiphenyl-4-yl]-1,2,4-oxadiazol-3-yl}pyridine-2-carboxylic acid, hydrochloride salt], for which the EC50 on S1P1 [1] worked out at 39.9 nM.

As to `COCc1cc(-c2nc(-c3ccc(N)nc3)no2)ccc1N1CCCC1C` (centres unmarked) [Example 33, 5-{5-[3-(methoxymethyl)-4-(2-methylpyrrolidin-1-yl)phenyl]-1,2,4-oxadiazol-3-yl}pyridin-2-amine], the EC50 on S1P1 [1] amounted to 7.39 nM. Besides, the concentration for half-maximal inhibition (IC50) on S1P1 [2] (setting [6]) came out at 5.37e-08 M.

For `CCC1CCCCN1c1ccc(-c2nc(-c3ccc(N)nc3)no2)cc1COC` (centres unmarked) [Example 27, 5-{5-[4-(2-ethylpiperidin-1-yl)-3-(methoxymethyl)phenyl]-1,2,4-oxadiazol-3-yl}pyridin-2-amine], the results for the EC50 at S1P1 [1] and at S1P3 [3] were 13.4 nM and 1660 nM, respectively. The IC50 at S1P1 [2] (setting [6]) is 5.7e-09 M.

As for `COCc1cc(-c2nc(-c3ccc(OC)nc3)no2)ccc1-c1ccccc1C` [Example 23, 2-methoxy-5-{5-[2-(methoxymethyl)-2′-methylbiphenyl-4-yl]-1,2,4-oxadiazol-3-yl}pyridine], the EC50 on S1P1 [1] amounted to 74.1 nM.

Regarding `COCc1cc(-c2nc(-c3ccc(N4CCCC4)nc3)no2)ccc1-c1ccccc1C` [Example 31, 5-{5-[2-(methoxymethyl)-2′-methylbiphenyl-4-yl]-1,2,4-oxadiazol-3-yl}-2-pyrrolidin-1-ylpyridine], the EC50 on S1P1 [1] worked out at 873 nM.

For `COCc1cc(-c2nc(-c3ccc(O)nc3)no2)ccc1-c1ccccc1C` [Example 21, 5-{5-[2-(methoxymethyl)-2′-methylbiphenyl-4-yl]-1,2,4-oxadiazol-3-yl}pyridin-2-ol], the results for the EC50 at S1P1 [1] and on S1P3 [3] were 3.97 nM and 422 nM, respectively. The 50% inhibitory concentration (IC50) on S1P1 [2] (setting [6]) was 4.76e-08 M.

Turning to `CCc1ccccc1-c1ccc(-c2nc(-c3ccc(N)nc3)no2)cc1COC` [Example 12, 5-{5-[2′-ethyl-2-(methoxymethyl)biphenyl-4-yl]-1,2,4-oxadiazol-3-yl}pyridin-2-amine, hydrochloride salt], the EC50 at S1P1 [1] is 1.63 nM. Besides, the IC50 at S1P1 [2] (setting [6]) came to 8.84e-09 M.
